Data: US9550781B2, “Kinase modulating compounds, compositions containing the same and use thereof” (CENTAURUS BIOPHARMA CO., LTD., priority 2011, dated 2017)

These compounds were tested against recombinant B-RAF enzyme (Homo sapiens (Human), UniProt P15056) (assay: In vitro B-RAF Kinase Assay (HTRF), IC50 determination). Details: 6HIS-Mek1 substrate, 60 min at 23° C.
Format: biochemical
Protocol: In vitro B-RAF Kinase Assay. To determine in vitro activities of recombinant B-RAF enzyme, a Homogeneous Time-Resolved Fluorescence (HTRF) assay was performed. […] Meanwhile, an Anti-6HIS-d2 antibody (Anti-6HIS-d2, Cisbio international) was added to detection system. When the two antibodies were close enough, energy, transfer was happened between Eu and d2, then activities of enzyme was determine by measuring fluorescence intensity (320 nm excitation, 665 nm emission).
IC50 determination. To evaluate in vitro potency of compounds against B-RAF enzyme, the IC50 values of compounds of this invention were determined. Compounds were 3-fold serially diluted with 100% DMSO from 1 mM, then 4 ml of compounds were transferred to 96 ml of reaction buffer (50 mM HEPES pH7.4, 10 mM MgCl2, 1 mM EGTA, 0.01% Tween-20, 0.005% BAS, 2 mM DTT). […] Then 2.5 ml of 4×ATP (2 mM) was added to the reaction system and initiated the reaction. The assay plate was incubated in an incubator for 60 min at 23° C., then the reaction was terminated by adding 5 ml of detection solution containing Eu3+ cryptate-labeled anti-phosphotyrosine PT66 antibody, and 5 ml of Anti-6HIS-d2 antibody. The plate was incubated for 1 h at 23° C. and the fluorescent signal was read with an EnVision multilable plate reader (PerkinElmer). IC50 values of compounds were generated using GraFit software (Version 6.0).

recombinant B-RAF enzyme, sequence (P15056 whole entry, species assumed): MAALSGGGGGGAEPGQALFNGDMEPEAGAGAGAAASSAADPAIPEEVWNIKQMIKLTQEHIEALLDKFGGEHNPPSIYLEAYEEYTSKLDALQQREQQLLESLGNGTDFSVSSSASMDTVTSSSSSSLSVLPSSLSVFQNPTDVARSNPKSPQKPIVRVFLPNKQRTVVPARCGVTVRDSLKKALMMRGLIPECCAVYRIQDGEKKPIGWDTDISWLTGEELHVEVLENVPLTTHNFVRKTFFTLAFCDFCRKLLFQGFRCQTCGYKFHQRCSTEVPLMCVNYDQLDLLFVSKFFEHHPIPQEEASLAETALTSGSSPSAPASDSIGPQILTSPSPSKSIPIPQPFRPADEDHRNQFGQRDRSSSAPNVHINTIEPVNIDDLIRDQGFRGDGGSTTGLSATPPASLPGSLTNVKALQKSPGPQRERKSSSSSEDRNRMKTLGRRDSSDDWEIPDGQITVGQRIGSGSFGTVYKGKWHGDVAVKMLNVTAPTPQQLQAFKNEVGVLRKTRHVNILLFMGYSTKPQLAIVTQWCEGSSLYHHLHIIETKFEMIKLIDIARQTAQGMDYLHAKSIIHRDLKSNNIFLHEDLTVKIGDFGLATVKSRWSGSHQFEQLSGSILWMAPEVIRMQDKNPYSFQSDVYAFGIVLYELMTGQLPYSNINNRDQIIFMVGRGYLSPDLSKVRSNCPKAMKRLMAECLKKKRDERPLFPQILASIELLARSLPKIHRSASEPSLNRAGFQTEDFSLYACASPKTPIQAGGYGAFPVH

Row | SMILES | IC50
1 | CCCS(=O)(=O)Nc1ccc(F)c(Nc2ncccc2-c2ncnc3[nH]cnc23)c1F [Example 1, N-(3-(3-(9H-purin-6-yl)pyridin-2-ylamino)-2,4-difluorophenyl)propane-1-sulfonamide] | < 100 nM
2 | CCCS(=O)(=O)Nc1ccc(F)c(Nc2ccccc2-c2ncnc3[nH]cnc23)c1F [Example 28, N-(3-(2-(9H-purin-6-yl)phenylamino)-2,4-difluorophenyl)propane-1-sulfonamide] | < 1000 nM
3 | CS(=O)(=O)Nc1ccc(F)c(Nc2ncccc2-c2ncnc3[nH]cnc23)c1F [Example 13, N-(3-(3-(9H-purin-6-yl)pyridin-2-ylamino)-2,4-difluorophenyl)methanesulfonamide] | < 500 nM
4 | O=S(=O)(Nc1ccc(F)c(Nc2ncccc2-c2ncnc3[nH]cnc23)c1F)c1ccc(F)cc1 [Example 23, N-(3-(3-(9H-purin-6-yl)pyridin-2-ylamino)-2,4-difluorophenyl)-4-fluorobenzenesulfonamide] | < 1000 nM
5 | CCS(=O)(=O)Nc1ccc(F)c(Nc2ncccc2-c2ncnc3[nH]cnc23)c1F [Example 12, N-(3-(3-(9H-purin-6-yl)pyridin-2-ylamino)-2,4-difluorophenyl)ethanesulfonamide] | < 1000 nM
6 | COc1ccc(C2CC2S(=O)(=O)Nc2ccc(F)c(Nc3ncccc3-c3ncnc4[nH]cnc34)c2F)cc1 (centres unmarked) [Example 22, N-(3-(3-(9H-purin-6-yl)pyridin-2-ylamino)-2,4-difluorophenyl)-2-(4-methoxyphenyl)cyclopropane-1-sulfonamide] | < 1000 nM
7 | O=S(=O)(Nc1ccc(F)c(Nc2ncccc2-c2ncnc3[nH]cnc23)c1F)c1ccccc1 [Example 15, N-(3-(3-(9H-purin-6-yl)pyridin-2-ylamino)-2,4-difluorophenyl)benzenesulfonamide] | < 100 nM
8 | CCCS(=O)(=O)Nc1ccc(F)c(Nc2ncccc2-c2ncnc3[nH]ncc23)c1F [Example 25, N-(3-(3-(1H-pyrazolo[3,4-d]pyrimidin-4-yl)pyridin-2-ylamino)-2,4-difluorophenyl)propane-1-sulfonamide] | < 500 nM
9 | CCCS(=O)(=O)Nc1ccc(F)c(Nc2ncccc2-c2ncnc3[nH]c(C)nc23)c1F [Example 3, N-(2,4-difluoro-3-(3-(8-methyl-9H-purin-6-yl)pyridin-2-ylamino)phenyl)propane-1-sulfonamide] | < 500 nM
10 | O=S(=O)(Nc1ccc(F)c(Nc2ncccc2-c2ncnc3[nH]cnc23)c1F)c1ccc(Cl)cc1 [Example 17, N-(3-(3-(9H-purin-6-yl)pyridin-2-ylamino)-2,4-difluorophenyl)-4-chlorobenzenesulfonamide] | < 500 nM
11 | O=S(=O)(CC(F)(F)F)Nc1ccc(F)c(Nc2ncccc2-c2ncnc3[nH]cnc23)c1F [Example 19, N-(3-(3-(9H-purin-6-yl)pyridin-2-ylamino)-2,4-difluorophenyl)-2,2,2-trifluoromethanesulfonamide] | < 100 nM
12 | O=S(=O)(Nc1ccc(F)c(Nc2ncccc2-c2ncnc3[nH]cnc23)c1F)C1CC1c1ccccc1 (centres unmarked) [Example 21, N-(3-(3-(9H-purin-6-yl)pyridin-2-ylamino)-2,4-difluorophenyl)-2-phenylcyclopropane-1-sulfonamide] | < 500 nM

Next, values leading:

Row | IC50 | SMILES
13 | < 100 nM | O=S(=O)(CCCF)Nc1ccc(Cl)c(Nc2ncccc2-c2ncnc3[nH]cnc23)c1F [Example 9, N-(3-(3-(9H-purin-6-yl)pyridin-2-ylamino)-4-chloro-2-fluorophenyl)-3-fluoropropane-1-sulfonamide]
14 | < 500 nM | O=S(=O)(Nc1ccc(F)c(Nc2ncccc2-c2ncnc3[nH]cnc23)c1F)c1ccc(F)c(F)c1 [Example 14, N-(3-(3-(9H-purin-6-yl)pyridin-2-ylamino)-2,4-difluorophenyl)-3,4-difluorobenzenesulfonamide]
15 | < 500 nM | O=S(=O)(CCl)Nc1ccc(F)c(Nc2ncccc2-c2ncnc3[nH]cnc23)c1F [Example 11, N-(3-(3-(9H-purin-6-yl)pyridin-2-ylamino)-2,4-difluorophenyl)-1-chloromethanesulfonamide]
16 | < 100 nM | CCCS(=O)(=O)Nc1ccc(F)c(Nc2ncccc2-c2ncnc3[nH]cnc23)c1 [Example 4, N-(3-(3-(9H-purin-6-yl)pyridin-2-ylamino)-4-fluorophenyl)propane-1-sulfonamide]
17 | < 100 nM | O=S(=O)(Nc1ccc(F)c(Nc2ncccc2-c2ncnc3[nH]cnc23)c1F)c1ccsc1 [Example 24, N-(3-(3-(9H-purin-6-yl)pyridin-2-ylamino)-2,4-difluorophenyl)thiophene-3-sulfonamide]
18 | < 100 nM | CCCS(=O)(=O)Nc1ccc(C)c(Nc2ncccc2-c2ncnc3[nH]cnc23)c1 [Example 6, N-(3-(3-(9H-purin-6-yl)pyridin-2-ylamino)-4-methylphenyl)propane-1-sulfonamide]
19 | < 100 nM | CCCS(=O)(=O)Nc1ccc(C)c(Nc2ccccc2-c2ncnc3[nH]cnc23)c1 [Example 27, N-(3-(2-(9H-purin-6-yl)phenylamino)-4-methylphenyl)propane-1-sulfonamide]
20 | < 100 nM | CCCS(=O)(=O)Nc1ccc(Cl)c(Nc2ncccc2-c2ncnc3[nH]cnc23)c1 [Example 5, N-(3-(3-(9H-purin-6-yl)pyridin-2-ylamino)-4-chlorophenyl)propane-1-sulfonamide]
21 | < 500 nM | CCCS(=O)(=O)Nc1ccc(F)c(Nc2ncccc2-c2ncnc3[nH]ccc23)c1F [Example 26, N-(3-(3-(7H-pyrrolo[2,3-d]pyrimidin-4-yl)pyridin-2-ylamino)-2,4-difluorophenyl)propane-1-sulfonamide]
22 | < 500 nM | C=CS(=O)(=O)Nc1ccc(F)c(Nc2ncccc2-c2ncnc3[nH]cnc23)c1F [Example 20, N-(3-(3-(9H-purin-6-yl)pyridin-2-ylamino)-2,4-difluorophenyl)ethenesulfonamide]
23 | < 100 nM | CCCS(=O)(=O)Nc1ccc(F)c(Nc2ncccc2-c2ncnc3[nH]cnc23)c1Cl [Example 8, N-(3-(3-(9H-purin-6-yl)pyridin-2-ylamino)-2-chloro-4-fluorophenyl)propane-1-sulfonamide]
24 | < 100 nM | O=S(=O)(CCCF)Nc1ccc(F)c(Nc2ncccc2-c2ncnc3[nH]cnc23)c1F [Example 10, N-(3-(3-(9H-purin-6-yl)pyridin-2-ylamino)-2,4-difluorophenyl)-3-fluoropropane-1-sulfonamide]
25 | < 100 nM | O=S(=O)(CCC(F)(F)F)Nc1ccc(F)c(Nc2ncccc2-c2ncnc3[nH]cnc23)c1F [Example 18, N-(3-(3-(9H-purin-6-yl)pyridin-2-ylamino)-2,4-difluorophenyl)-3,3,3-trifluoropropane-1-sulfon amide]
26 | < 100 nM | CCCS(=O)(=O)Nc1ccc(Cl)c(Nc2ncccc2-c2ncnc3[nH]cnc23)c1F [Example 7, N-(3-(3-(9H-purin-6-yl)pyridin-2-ylamino)-4-chloro-2-fluorophenyl)propane-1-sulfonamide]
